A short description of one series: Qualitative solubility. Type of series: physicochemical.
A further series deals with hCA I (Homo sapiens, UniProt P00915). Nature of the series: CA-catalysed CO2 hydration stopped-flow inhibition assay, hCA I.
In a further series the target is hCA II (Homo sapiens, UniProt P00918). Description: CA-catalysed CO2 hydration stopped-flow inhibition assay, hCA II.
A further series addresses hCA IX (Homo sapiens, UniProt Q16790). Description: CA-catalysed CO2 hydration stopped-flow inhibition assay, hCA IX. The note with it: for Ki: stopped-flow CO2 hydration, mean ± standard error, three assays; for Selectivity Ratio A = hCA II/IX: ratio of Ki hCA II / Ki hCA IX.
A further series concerns the target hCA XII (Homo sapiens, UniProt O43570). Description: CA-catalysed CO2 hydration stopped-flow inhibition assay, hCA XII. The note with it: for Ki: stopped-flow CO2 hydration, mean ± standard error, three assays; for Selectivity Ratio B = hCA II/XII: ratio of Ki hCA II / Ki hCA XII.
Setting [1] is: Ki (nM) hCA II, mean ± standard error, three assays.

SMILES strings stand for the structures. Structures can show the parent of a compound that is named as a salt. Where two headings read alike, the source gives them in different places.

hCA XII, sequence (O43570 25-354): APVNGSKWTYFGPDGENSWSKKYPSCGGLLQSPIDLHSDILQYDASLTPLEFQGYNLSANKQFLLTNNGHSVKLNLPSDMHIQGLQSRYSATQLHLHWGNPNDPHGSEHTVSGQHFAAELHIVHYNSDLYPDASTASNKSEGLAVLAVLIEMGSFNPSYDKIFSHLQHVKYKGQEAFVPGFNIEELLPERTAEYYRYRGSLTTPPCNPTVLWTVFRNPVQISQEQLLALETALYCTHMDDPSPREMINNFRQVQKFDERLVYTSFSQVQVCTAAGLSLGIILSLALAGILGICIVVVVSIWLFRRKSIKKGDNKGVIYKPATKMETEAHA
hCA I, sequence (P00915 whole entry): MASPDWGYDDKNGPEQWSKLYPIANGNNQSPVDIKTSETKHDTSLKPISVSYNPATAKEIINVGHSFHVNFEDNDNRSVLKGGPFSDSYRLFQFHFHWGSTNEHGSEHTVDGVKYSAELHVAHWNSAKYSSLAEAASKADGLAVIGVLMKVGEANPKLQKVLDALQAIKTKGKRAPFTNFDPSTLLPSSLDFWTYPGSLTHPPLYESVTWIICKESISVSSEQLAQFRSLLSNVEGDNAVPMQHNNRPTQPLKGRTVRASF

`NS(=O)(=O)c1ccc(N2C(=O)c3cccc4c(S(=O)(=O)O)ccc(c34)C2=O)cc1` (as salt: potassium) [Compound 1, 4-(4-sulfo-1,8-napthalic-1,3-dioxopyridine) potassium benzenesulphonamide] showed a melting point of 277 °C.

In the case of `NS(=O)(=O)c1ccc(N2C(=O)c3cccc4c(S(=O)(=O)O)ccc(c34)C2=O)cc1` [Compound 1, 4-(4-sulfo-1,8-napthalic-1,3-dioxopyridine) potassium benzenesulphonamide], the solubility in water entry in the series “Qualitative solubility” was “fully soluble”. The Ki at hCA I (read-out: Ki (nM) hCA I, stopped-flow CO2 hydration, mean ± standard error, three assays) is 49 ± 3.2 nM; at hCA II (read-out: Ki (nM) hCA II, mean ± standard error, three assays), 13 ± 0.9 nM; at hCA IX (read-out: Ki (nM) hCA IX) it was 7770 ± 145 nM.

Consider `NS(=O)(=O)c1ccc(CCN2C(=O)C=CC2=O)cc1` [Compound 2, 4-(2-(2,5-dioxo-2H-pyrrol-1(5H)-yl)ethyl)benzenesulphonamide], for which the melting point turned out to be 210 °C. For the same compound, the solubility in water result in “Qualitative solubility” was “insoluble”. Moreover, the Ki at hCA IX (Ki (nM) hCA IX) stood at 7420 ± 348 nM. The same compound yielded a Ki at hCA XII (Ki (nM) hCA XII) of 69 ± 4.5 nM.

The compound `NS(=O)(=O)c1ccc2sc(N3C(=O)c4c(Cl)c(Cl)c(Cl)c(Cl)c4C3=O)nc2c1` [Compound 3, 2-(4,5,6,7-tetrachloro-1,3-dioxoisoindolin-2-yl) benzo[d]thiazole-5-sulphonamide] displayed a melting point of 302.2 °C. Besides, the solubility in water result in “Qualitative solubility” is on record as “fully soluble”. Besides, the Ki on hCA I was 258 ± 12 nM. The same compound yielded a Ki at hCA IX (Ki (nM) hCA IX) of 933 ± 56 nM. In addition, the “Selectivity Ratio A = hCA II/IX” value on hCA IX worked out at 0.795. The Ki at hCA XII (Ki (nM) hCA XII) is 80 ± 7 nM.

As to `NS(=O)(=O)c1ccc2sc(N3C(=O)c4c(Br)c(Br)c(Br)c(Br)c4C3=O)nc2c1` [Compound 4, 2-(4,5,6,7-Tetrabromo-1,3-dioxoisoindolin-2-yl) Benzo[d]Thiazole-5-Sulphonamide], the solubility in water entry in “Qualitative solubility” is on record as “insoluble”. For the same compound, the Ki on hCA I was found to be 463 ± 29 nM; on hCA II (setting [1]), 44 ± 1.9 nM; at hCA IX (Ki (nM) hCA IX) it was 4030 ± 237 nM; on hCA XII (Ki (nM) hCA XII) it was 87 ± 6 nM. Further, on hCA IX, the “Selectivity Ratio A = hCA II/IX” value is on record as 0.011. For the same compound, the “Selectivity Ratio B = hCA II/XII” value on hCA XII is given as 0.506.

Consider `NS(=O)(=O)c1ccc(N2C(=O)c3ccc([N+](=O)[O-])cc3C2=O)c(F)c1` [Compound 5, 3-fluoro-4-(5-nitro-1,3-dioxoisoindolin-2-yl) benzenesulphonamide], for which the melting point is 232 °C. Further, the solubility in water entry in the series “Qualitative solubility” is “insoluble”. The Ki on hCA I was 400 ± 31 nM. This compound came in with a Ki at hCA II (setting [1]) of 4.6 ± 0.3 nM. Further, the Ki on hCA IX (Ki (nM) hCA IX) was found to be 4900 ± 300 nM. The same compound yielded an inhibitory constant (Ki) at hCA XII (Ki (nM) hCA XII) of 75 ± 4 nM. Moreover, the “Selectivity Ratio B = hCA II/XII” value on hCA XII turned out to be 0.061.

Regarding `NS(=O)(=O)c1ccc(N2C(=O)c3c(Cl)c(Cl)c(Cl)c(Cl)c3C2=O)cc1` [Compound 6, 4-(4,5,6,7-tetrachloro-1,3-dioxoisoindolin-2-yl) benzenesulphonamide], the solubility in water entry in “Qualitative solubility” is given as “insoluble”.

Take `NS(=O)(=O)c1ccc(CN2C(=O)c3c(Cl)c(Cl)c(Cl)c(Cl)c3C2=O)cc1` [Compound 7, 4-((4,5,6,7-Tetrachloro-1,3-dioxoisoindolin-2-yl) Methyl) Benzenesulphonamide]: in “Qualitative solubility”, the solubility in water result was “insoluble”. Also, affinity at hCA IX (Ki (nM) hCA IX) was put at a Ki of 103 ± 5 nM.

For `NS(=O)(=O)c1ccc(CCN2C(=O)c3c(Cl)c(Cl)c(Cl)c(Cl)c3C2=O)cc1` [Compound 8, 4-(2-(4,5,6,7-tetrachloro-1,3-dioxoisoindolin-2-yl)ethyl)benzenesulphonamide], the melting point was 286 °C. For the same compound, the solubility in water entry in the series “Qualitative solubility” is on record as “insoluble”. Moreover, the affinity on hCA XII (Ki (nM) hCA XII) corresponds to a Ki of 226 ± 13 nM.

In the case of `NS(=O)(=O)c1cccc(N2C(=O)c3c(Cl)c(Cl)c(Cl)c(Cl)c3C2=O)c1` [Compound 9, 3-(4,5,6,7-tetrachloro-1,3-dioxoisoindolin-2-yl) benzenesulphonamide], the melting point was 308 °C. The solubility in water result in the series “Qualitative solubility” is on record as “insoluble”. Also, the affinity at hCA IX (Ki (nM) hCA IX), expressed as Ki, was 498 ± 34 nM. The compound further returned a Ki at hCA XII (Ki (nM) hCA XII) of 316 ± 28 nM.

As to `NS(=O)(=O)c1ccccc1N1C(=O)c2c(Cl)c(Cl)c(Cl)c(Cl)c2C1=O` [Compound 10, 2-(4,5,6,7-tetrachloro-1,3-dioxoisoindolin-2-yl) benzenesulphonamide], the melting point is 313 °C. In addition, the solubility in water result in the series “Qualitative solubility” was “insoluble”. Affinity on hCA IX (Ki (nM) hCA IX) was put at a Ki of 559 ± 26 nM. The compound further displayed a Ki at hCA XII (Ki (nM) hCA XII) of 309 ± 24 nM.

On to `NS(=O)(=O)c1ccc(N2C(=O)c3c(Cl)c(Cl)c(Cl)c(Cl)c3C2=O)c(F)c1` [Compound 11, 3-fluoro-4-(4,5,6,7-tetrachloro-1,3-dioxoisoindolin-2-yl) benzenesulphonamide], for which the melting point was 278 °C. The solubility in water entry in “Qualitative solubility” was “insoluble”. Further, affinity on hCA IX (Ki (nM) hCA IX) was put at a Ki of 88 ± 7 nM. At hCA XII (Ki (nM) hCA XII), this compound had a Ki of 14 ± 1 nM.

`NS(=O)(=O)c1ccc(N2C(=O)c3c(Cl)c(Cl)c(Cl)c(Cl)c3C2=O)c(Cl)c1` [Compound 12, 3-chloro-4-(4,5,6,7-tetrachloro-1,3-dioxoisoindolin-2-yl)benzenesulphonamide] displayed a melting point of 303 °C. Besides, in “Qualitative solubility”, the solubility in water result was “insoluble”. The inhibition constant (Ki) on hCA IX (Ki (nM) hCA IX) is 49 ± 0.4 nM. Further, the inhibition constant (Ki) on hCA XII (Ki (nM) hCA XII) was 22 ± 1.7 nM.

In the case of `NS(=O)(=O)c1ccc(N2C(=O)c3c(Cl)c(Cl)c(Cl)c(Cl)c3C2=O)c(Br)c1` [Compound 13, 3-bromo-4-(4,5,6,7-tetrachloro-1,3-dioxoisoindolin-2-yl) benzenesulphonamide], the melting point was 265 °C. Besides, the solubility in water entry in the series “Qualitative solubility” is listed as “insoluble”. The compound also had a Ki at hCA IX (Ki (nM) hCA IX) of 40 ± 1.5 nM. The Ki at hCA XII (Ki (nM) hCA XII) was found to be 99 ± 3.5 nM.

With `NS(=O)(=O)c1ccc(S(=O)(=O)Nc2cccc3c(Cl)c[nH]c23)cc1` [IND, Indisulam, reference compound], the Ki on hCA XII (read-out: Ki (nM) hCA XII) was 3.4 ± 0.2 nM.

These data come from paper PMC8308639, “Synthesis and Human Carbonic Anhydrase I, II, IX, and XII Inhibition Studies of Sulphonamides Incorporating Mono-, Bi- and Tricyclic Imide Moieties” (Pharmaceuticals, 2021).
